{"source": "patent US20230201217A1", "about": "(priority 2019, published 2023)", "key": {"male cynomolgus monkeys": {"test_system": "male cynomolgus monkeys", "experiment": "Cardiovascular and respiratory radiotelemetry in conscious cynomolgus monkeys", "assay_type": "in vivo, cynomolgus monkey", "experimental": "Clinical observations were performed at approximately 4 and 24 hours post-dosing."}, "[1]": {"test_system": "human peripheral blood lymphocytes (HPBL)", "experiment": "In vitro chromosome aberration test", "assay_type": "cell-based", "experimental": "Based on precipitates observed in the range-finding assay, concentrations used during the definitive chromosome aberration assay were a) 7.5, 15, 25, 50, 100, and 150 μg/mL in the 3-hour treatments with and without metabolic activation, and b) 1.0, 15, 25, 30, 35, 40, 45, 50, 55, 60, and 75 μg/mL in the 22-hour treatment without metabolic activation. These cultures along with the vehicle and one concentration of positive control for each treatment condition were analyzed for aberrations. Structural chromosome aberrations were scored for each concentration from a total of 200 metaphase cells (when possible) or ≥30 aberrant cells. Numerical aberrations were evaluated in 400 metaphase cells per concentration."}, "[2]": {"test_system": "rats trained to self-administer cocaine", "conditions": "10-40 mg/kg i.p., cited from earlier work"}, "[3]": {"test_system": "rats trained to self-administer cocaine", "experiment": "Rat cocaine self-administration, oral 18-MC HCl", "conditions": "for inhibition of cocaine self-administration: 1 hour post-dose", "quoted_text": "The relationship between in vivo efficacy and plasma drug exposure was investigated in rats trained to self-administer cocaine. […] Blood samples were collected immediately after the one hour session in the operant chamber from the arterial catheter. […] Significant differences from vehicle-treated animals were either p<0.01 (indicated as **) or p<0.05 (indicated as *).\nSignificant difference from vehicle-treated group (0 mg/kg on X axis) was p<0.01 (indicated as **) by one-way ANOVA.\nSignificant difference from baseline responding was p<0.01 (as indicated by **). […] Blood samples were collected from animals immediately after their cocaine self-administration at approximately 2 hours post dose in the first day of dosing (Day 0), and the last day of dosing (Day 4)."}, "[4]": {"test_system": "64 neurotransmitter-related binding sites", "experiment": "In vitro radio-ligand receptor and enzyme assays (panel)", "conditions": "100 nM", "experimental": "The binding potential of 18-MC with 64 neurotransmitter-related binding sites was evaluated (TABLE 2)."}, "plasma protein [5]": {"test_system": "plasma protein", "experiment": "Plasma protein binding", "assay_type": "in vitro ADME, Mouse", "text": "(§1) There is no information on the protein binding of any of the metabolites."}, "plasma protein [6]": {"test_system": "plasma protein", "experiment": "Plasma protein binding", "assay_type": "in vitro ADME, Monkey", "text": "as §1"}, "healthy volunteers": {"test_system": "healthy volunteers", "experiment": "Phase 1 first-in-human study, safety and tolerability", "assay_type": "in vivo", "design": "key to AE Urinary tract infection (subject A1): Study Drug related / AE Retro-orbital headache (subject A2): Study Drug related / AE Hot coffee burn in hand and right forearm (subject A3): Study Drug related / AE Dry cough (subject A4): Study Drug related / AE Body pain (subject A5): Study Drug related / AE Occipital and frontal headache (subject A6): Study Drug related / AE Nausea (subject A1): Study Drug related / AE Arterial Hypotension (subject A1): Study Drug related / AE Pain - submandibular lymph node (subject A1): Study Drug related: 1 Not related; 2 Possible; 3 Probable", "experimental": "None discontinued the study.\nSafety was monitored by reported adverse events, hematology, serum chemistries (including electrolytes, renal and liver function, urinalysis, ECG and vital signs. In addition, a neurological examination (mini-mental status exam) including assessment for abnormal eye movement, nystagmus, tremors, reflexes, upper and lower extremity strength, distal sensor perception, intention tremor, the Romberg test, excessive somnolence and mental status were performed."}, "[7]": {"experiment": "Pre-clinical pharmacokinetics, all species tested", "assay_type": "in vivo", "experimental": "In all the species tested in pre-clinical studies, 18-MC is rapidly absorbed following oral administration with Tmax occurring in less than 0.5 hours following oral administration. After oral administration, the elimination of 18-MC is multi-compartmental. In plasma, 18-MC is highly protein bound (92% to 98%). 18-MC is also rapidly and extensively metabolized, presumably by first pass metabolism. At least […] different metabolites have been detected both in vitro and in vivo, further described below (M1-M9, P1-P3). The major metabolites (those with exposure greater than 10% of the total drug related material) appear to change with the dose and duration of dosing. Major metabolites include M2, M4, M5, M8, M9 and P2 depending on the animal species tested, and the dose and duration of dosing.\n18-MC is rapidly absorbed and distributed into the brain and fat tissues in rats dosed with 40 mg/kg p.o. or i.p. The estimated volume of distribution is 8 L/kg. 18-MC levels in fat were 4.2 μM and 2.5 μM at 2 hours and 24 hours, respectively. […] On oral administration, it appears that the major metabolites are either M4 or M5, depending on the animal species tested. M4 and M5 are the primary circulating drug species because they are present at proportions greater than 18-MC. […] In the animal species tested its half-life is less than 2 hours at lower doses. […]"}, "CYP2A6": {"biological_target": "CYP2A6 (Homo sapiens, UniProt P11509)", "sequence (P11509 whole entry)": "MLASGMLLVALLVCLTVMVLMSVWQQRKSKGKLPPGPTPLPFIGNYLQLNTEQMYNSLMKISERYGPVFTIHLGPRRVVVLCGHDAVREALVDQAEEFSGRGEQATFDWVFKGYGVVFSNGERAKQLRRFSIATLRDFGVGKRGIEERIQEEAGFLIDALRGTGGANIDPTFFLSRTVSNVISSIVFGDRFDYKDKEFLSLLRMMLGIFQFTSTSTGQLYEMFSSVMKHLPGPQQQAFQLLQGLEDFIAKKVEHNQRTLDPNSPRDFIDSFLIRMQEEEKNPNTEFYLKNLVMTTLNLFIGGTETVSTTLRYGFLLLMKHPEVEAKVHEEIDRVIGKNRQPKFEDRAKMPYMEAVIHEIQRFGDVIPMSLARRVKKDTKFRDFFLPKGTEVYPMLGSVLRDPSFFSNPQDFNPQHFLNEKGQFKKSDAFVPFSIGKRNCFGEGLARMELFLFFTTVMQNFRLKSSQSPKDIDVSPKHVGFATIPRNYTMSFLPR", "conditions": "recombinant enzyme", "quoted_text": "(§2) Control incubations were performed for each assay with appropriate positive inhibitory controls."}, "CYP2D6": {"biological_target": "CYP2D6 (Homo sapiens, UniProt P10635)", "sequence (P10635 whole entry)": "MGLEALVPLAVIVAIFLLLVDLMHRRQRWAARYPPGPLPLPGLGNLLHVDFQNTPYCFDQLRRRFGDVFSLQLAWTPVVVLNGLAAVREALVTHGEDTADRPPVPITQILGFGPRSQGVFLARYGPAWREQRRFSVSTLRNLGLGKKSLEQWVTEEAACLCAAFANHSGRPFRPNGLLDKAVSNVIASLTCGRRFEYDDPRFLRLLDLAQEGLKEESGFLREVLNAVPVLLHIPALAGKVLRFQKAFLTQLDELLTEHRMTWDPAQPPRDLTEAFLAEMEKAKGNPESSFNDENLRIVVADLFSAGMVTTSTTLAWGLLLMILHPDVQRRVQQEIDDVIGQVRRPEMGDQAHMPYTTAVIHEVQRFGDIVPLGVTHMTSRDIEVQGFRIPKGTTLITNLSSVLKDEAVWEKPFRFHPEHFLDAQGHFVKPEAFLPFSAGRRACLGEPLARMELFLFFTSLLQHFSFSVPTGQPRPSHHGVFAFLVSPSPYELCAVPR", "conditions": "recombinant enzyme", "quoted_text": "as §2"}}}
{"compound": "COCCC1CC2CN3CCc4c([nH]c5ccccc45)C(C(=O)OC)(C2)C13.Cl", "note": "(stereo not drawn) [18-MC HCl, 18-Methoxycoronaridine hydrochloride]", "values": [{"measurement": "cardiovascular parameters, body temperature, respiratory parameters", "setting": "male cynomolgus monkeys; 30, 90, or 270 mg/kg single dose", "result": "did not affect"}, {"measurement": "NOEL on the cardiovascular and respiratory systems", "setting": "male cynomolgus monkeys; single dose, highest dose tested", "result": 270, "unit": "mg/kg"}, {"measurement": "structural chromosome aberrations", "setting": "[1]; with metabolic activation", "result": "positive"}, {"measurement": "structural chromosome aberrations", "setting": "[1]; without metabolic activation", "result": "negative"}, {"measurement": "responding for cocaine", "setting": "[2]; 15 minutes prior to session", "result": "significantly decreased"}, {"measurement": "responding for water", "setting": "[2]", "result": "no effect"}, {"measurement": "inhibition of cocaine self-administration", "setting": "[3]; 120 mg/kg p.o.", "result": 50, "unit": "%"}, {"measurement": "inhibition of cocaine self-administration on repeated dosing", "setting": "[3]; 600 mg/kg/day, 5 consecutive days", "result": "did not result in greater inhibition"}, {"measurement": "inhibition of cocaine self-administration", "setting": "[3]; 800 mg/kg p.o.", "result": 82, "unit": "%"}]}
{"compound": "COCC[C@H]1CC2CN3CCc4c([nH]c5ccccc45)[C@](C(=O)OC)(C2)[C@H]13", "note": "[18-MC, 18-methoxycoronaridine]", "values": [{"measurement": "binding activity", "setting": "[4]", "result": "no binding activity"}, {"measurement": "% Bound Mean ± SD", "setting": "plasma protein [5]; 200 ng/mL", "result": "97.0 ± 0.208", "unit": "%"}, {"measurement": "% Bound Mean ± SD", "setting": "plasma protein [5]; 600 ng/mL", "result": "97.1 ± 0.058", "unit": "%"}, {"measurement": "% Bound Mean ± SD", "setting": "plasma protein [5]; 5,000 ng/mL", "result": "96.5 ± 0.071", "unit": "%"}, {"measurement": "Average % Bound Mean ± SD", "setting": "plasma protein [5]; average of 3 concentrations", "result": "96.9 ± 0.321", "unit": "%"}, {"measurement": "% Bound Mean ± SD", "setting": "plasma protein [6]; 200 ng/mL", "result": "98.4 ± 0.643", "unit": "%"}, {"measurement": "% Bound Mean ± SD", "setting": "plasma protein [6]; 600 ng/mL", "result": "97.7 ± 0.100", "unit": "%"}, {"measurement": "% Bound Mean ± SD", "setting": "plasma protein [6]; 5,000 ng/mL", "result": "97.2 ± 0.100", "unit": "%"}, {"measurement": "Average % Bound Mean ± SD", "setting": "plasma protein [6]; average of 3 concentrations", "result": "97.8 ± 0.603", "unit": "%"}, {"measurement": "serious adverse events", "setting": "healthy volunteers; 20 mg single dose, 4 mg twice", "result": "No serious adverse events occurred"}, {"measurement": "dose at which safe in healthy volunteers", "setting": "healthy volunteers; FIH study", "result": "up to 20 mg"}, {"measurement": "AE Arterial Hypotension (subject A1): Severity", "setting": "healthy volunteers; day noted 1", "result": 1}, {"measurement": "AE Arterial Hypotension (subject A1): Study Drug related", "setting": "healthy volunteers; day noted 1", "result": 2}, {"measurement": "AE Nausea (subject A1): Severity", "setting": "healthy volunteers; day noted 1", "result": 1}, {"measurement": "AE Nausea (subject A1): Study Drug related", "setting": "healthy volunteers; day noted 1", "result": 2}, {"measurement": "AE Pain - submandibular lymph node (subject A1): Severity", "setting": "healthy volunteers; day noted 1", "result": 1}, {"measurement": "AE Pain - submandibular lymph node (subject A1): Study Drug related", "setting": "healthy volunteers; day noted 1", "result": 2}, {"measurement": "AE Retro-orbital headache (subject A2): Severity", "setting": "healthy volunteers; day noted 1", "result": 1}, {"measurement": "AE Retro-orbital headache (subject A2): Study Drug related", "setting": "healthy volunteers; day noted 1", "result": 2}, {"measurement": "AE Urinary tract infection (subject A1): Severity", "setting": "healthy volunteers; day noted 2-30", "result": 2}, {"measurement": "AE Urinary tract infection (subject A1): Study Drug related", "setting": "healthy volunteers; day noted 2-30", "result": 1}, {"measurement": "AE Occipital and frontal headache (subject A6): Severity", "setting": "healthy volunteers; day noted 4", "result": 2}, {"measurement": "AE Occipital and frontal headache (subject A6): Study Drug related", "setting": "healthy volunteers; day noted 4", "result": 1}, {"measurement": "AE Dry cough (subject A4): Severity", "setting": "healthy volunteers; day noted 4 (CRF entry error)", "result": 1}, {"measurement": "AE Dry cough (subject A4): Study Drug related", "setting": "healthy volunteers; day noted 4 (CRF entry error)", "result": 3}, {"measurement": "AE Hot coffee burn in hand and right forearm (subject A3): Severity", "setting": "healthy volunteers; day noted 7", "result": 1}, {"measurement": "AE Hot coffee burn in hand and right forearm (subject A3): Study Drug related", "setting": "healthy volunteers; day noted 7", "result": 1}, {"measurement": "AE Body pain (subject A5): Severity", "setting": "healthy volunteers; day noted 30", "result": 1}, {"measurement": "AE Body pain (subject A5): Study Drug related", "setting": "healthy volunteers; day noted 30", "result": 1}, {"measurement": "half-life", "setting": "[7]; animal species tested, lower doses, oral", "result": "less than 2 hours"}, {"measurement": "Tmax", "setting": "[7]; oral administration, all the species tested", "result": "less than 0.5 hours"}, {"measurement": "IC50", "setting": "CYP2A6", "result": "> 100", "unit": "µM"}, {"measurement": "IC50", "setting": "CYP2D6", "result": "> 100", "unit": "µM"}]}
